Measurements from patent US5407946A, “Pyrrolidine compounds which are useful as thromboxane AZ-inhibitors” (Adir et Compagnie, priority 1992, dated 1995).

Columns and labels:
[1] = biological target: T1, TXA2 receptors (Oryctolagus cuniculus, UniProt Q6WQI8); test: Platelet aggregation induced by U46619 in rabbit platelet-rich plasma (PRP); type: cell-based; conditions: 37° C., antagonist added 3 min before U46619 (1.2 μM), read-out: IC50, concentration which induces 50% inhibition of the aggregation response induced by U46619
T1 construct: citrated platelet-rich plasma, U46619-induced aggregation
T1 sequence (Q6WQI8 1-233): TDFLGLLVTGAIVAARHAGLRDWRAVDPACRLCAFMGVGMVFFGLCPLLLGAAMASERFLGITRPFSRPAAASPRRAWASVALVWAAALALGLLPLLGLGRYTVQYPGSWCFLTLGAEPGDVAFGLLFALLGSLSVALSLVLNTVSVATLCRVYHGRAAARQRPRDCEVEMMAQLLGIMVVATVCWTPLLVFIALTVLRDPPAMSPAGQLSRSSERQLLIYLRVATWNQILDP
Method: The rabbits (2-3 kg) are anesthetized with sodium pentobarbital (30 mg/kg i.v.). After cannulation of the left carotid artery, the blood is collected over sodium citrate (0.109 M) (1 vol. of citrate per 9 vol. of blood).
The plasma which is high in platelets (PRP) is obtained by centrifugation (20° C.) at 250 g for 20 minutes and the plasma which is low in platelets (PPP) by centrifugation at 1000 g (10 min). The number of platelets (PL) in the PRP is adjusted to between 300-350,000 pl/mm^3 by dilution with autologous PPP. The PRP is stored at room temperature up to the time of the test and is used within 4 hours following the collection. Platelet aggregation is performed at 37° C. in glass tubes siliconized by means of an aggregometer. The PRP and PLs are stirred at 1000 rpm (revolution per minute). In order to study the activity of the thromboxane antagonists, the PRP is incubated for 1 min at 37° C., and the antagonist is then added for a period of 3 min before adding the agonist U46619 (1.2 μM). The final volume of the cuvette is then 250 μl. The extent of platelet aggregation is determined by measuring the maximum amplitude of the aggregation plots and is expressed as a percentage of light transmission (% T). The activity of the antagonists is expressed as IC50, that is to say the concentration of the substance which induces 50% inhibition of the aggregation response induced by U46619.

[2] = biological target: T2, thromboxane receptors (Cavia porcellus, UniProt A0A286Y4I8); test: IC50 on the tracheal pressure in guinea pigs (bronchoconstriction induced by U46619 in vivo); conditions: guinea pig, iv, 5 min; anesthetized guinea pigs, antagonist injected 5 minutes before U46619 (2 μg/kg i.v.), jugular vein; read-out: IC50, antagonist dose which inhibits by 50% the increase in tracheal pressure caused by U46619
T2 construct: U46619 causes a bronchoconstriction which results in an increase in tracheal pressure; from tissue; host or cells: whole anesthetized guinea pig (in vivo, airways)
T2 sequence (A0A286Y4I8 1-347): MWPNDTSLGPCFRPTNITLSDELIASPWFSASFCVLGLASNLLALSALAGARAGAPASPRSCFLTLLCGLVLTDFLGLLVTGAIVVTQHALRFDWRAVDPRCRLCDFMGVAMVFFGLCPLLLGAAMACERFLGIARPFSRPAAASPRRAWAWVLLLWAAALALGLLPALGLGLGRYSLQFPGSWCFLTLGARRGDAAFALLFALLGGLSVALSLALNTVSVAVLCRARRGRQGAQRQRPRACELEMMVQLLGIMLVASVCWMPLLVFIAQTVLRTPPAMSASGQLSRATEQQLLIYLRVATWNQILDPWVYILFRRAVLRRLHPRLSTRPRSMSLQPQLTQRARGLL
Text: Male albino guinea pigs (350-400 g), subjected to an 18-hour water diet, are anesthetized with ethylcarbamate (1.25 g/kg i.p.). A catheter is introduced into the carotid artery in order to measure the blood pressure by means of a pressure cell. A second catheter is introduced introduced into the jugular vein and is used for injecting the pharmacological substances. The trachea is cannulated and the guinea pig is placed under assisted respiration by means of a respirator. The temperature of the animal is kept at 37° C. by means of a thermostated cover. A needle pricked into the tracheal cannula is connected to a pressure cell and allows the tracheal pressure to be recorded. The guinea pigs are pretreated with d-tubocurarine (1 mg/kg i.v.) and with indomethacin (10 mg/kg i.v.). Injected at a dose of 2 μg/kg i.v., U46619 causes a bronchoconstriction which results in an increase in tracheal pressure and induces an increase in blood pressure. The responses to U46619 are reversible and reproducible if the injections are performed every 10 minutes.
The antagonists of thromboxane receptors are injected 5 minutes before the injections of U46619. The antagonist dose which inhibits by 50% the increase in tracheal pressure caused by U46619 is determined (IC50).

[3] = biological target: T3, TXA2 receptors (Cavia porcellus, UniProt A0A286Y4I8); test: Determination of the pA2 values on guinea pig trachea (contractions caused by U46619); type: cell-based; conditions: guinea pig tracheal rings, 37° C., agonist U46619 10^-9 M to 10^-5 M, antagonist contact 20 minutes; read-out: pA2 (negative logarithm of the concentration of antagonist in the presence of which twice the amount of agonist is required for the same effect) (converted)
T3 construct: the trachea is rapidly removed and then cut out into rings containing two cartilages; from tissue; host or cells: guinea pig trachea rings
T3 sequence (A0A286Y4I8 1-347): T2 sequence (A0A286Y4I8 1-347)
Method: 400-500-gram albino male guinea pigs were sacrificed by striking the nape of the neck and by pulling the neck. The throat is cut and the trachea is rapidly removed and then cut out into rings containing two cartilages. These rings are mounted between two hooks in cuvettes thermostated at 37° C., containing physiological saline (composition in mM: 118 NaCl; 25 NaHCO3; 10 glucose; 4.7 KCl; 1.25 CaCl2; 1.19 MgSO4; 1.14 KH2 PO4).
The physiological saline is bubbled with a mixture of 95% O2 -5% CO2. The bottom hook constitutes the fixed point while the upper hook is connected to an isometric force sensor. The tissues are placed under a basal tension of 3.5 grams. The pharmacological substances studied are prepared immediately before use. The drugs are solubilized in water or in dimethyl sulfoxide.
After mounting, the preparations are allowed to stand for 90 minutes, rinsings being carried out every 30 minutes. After readjusting the basal tension, a contraction generated by a single dose of agonist (U46619; 10^-5 M) is generated in order to stabilize subsequent contractions. After washing and returning to the base line, a first effect/concentration curve is produced by the addition of cumulative doses of U46619 (10^-9 M to 10^-5 M; the interval between the doses is a semilog). This first experiment makes it possible to calculate the effective concentration 50% (EC50) "control".
This EC50 is routinely calculated in the following manner: the tension values are first converted to percentages relative to the maximum effect, these percentages are then plotted on a graph with the percentages on the y-axis and the log(concentration) values on the x-axis. A linear regression is then performed on the points between 10% and 90% (which corresponds to the linear portion of the sigmoid curve). The concentration corresponding to half maximum effect (50%) can be easily calculated by means of the parameters of the straight line.
After washing and returning to the base line, the organ is placed in contact with the antagonist ([…]) for 20 minutes. A second effect/concentration curve is then produced in the presence of the antagonist and the "treated" EC50 can then be calculated. All the elements required for calculating the pA2 (competitive antagonism) or the pD2 (noncompetitive antagonism) are thus available.
The pA2 (which represents the negative logarithm of the concentration of antagonist in the presence of which twice the amount of agonist is required in order to obtain the same effect) is determined by plotting on a graph the log((L/l)-1) values relative to the log(concentration of antagonist), with L=effect in the presence of antagonist and 1=control effect. In this test, the pA2 values for the compounds of Examples 14 and 18 are as follows: […]

Compound	ED50 [2] [mg/kg]	Kb [3] [nM]	IC50 [1] [nM]
O=C(O)CCC/C=C\C[C@@H]1CN(S(=O)(=O)c2cccc3cnccc23)C[C@@H]1c1ccccc1O (relative stereo) [Example 30, (5Z-7-[(3α,4α)-1-[(Isoquinolyl-5-yl)sulfonyl]-4-(2-hydroxyphenyl)pyrrolidin-3-yl)]hept-5-enoic acid]	0.08	–	500
O=C(O)CCC/C=C\C[C@@H]1CN(Cc2ccccc2)C[C@@H]1c1ccccc1O (relative stereo) [Example 14, (5Z)-7-[(3α,4α)-1-Benzyl-4-(2-hydroxyphenyl)pyrrolidin-3-yl]hept-5-enoic acid]	1.02	282	–
O=C(O)CC/C=C\C[C@@H]1CN(C(=O)Nc2ccccc2)C[C@@H]1c1ccccc1O (relative stereo) [Example 22, (4Z)-6-[(3α,4α)-1-Phenylaminocarbonyl-4-(2-hydroxyphenyl)pyrrolidin-3-yl]hex-4-enoic acid]	1.21	–	4000
O=C(O)CC/C=C\C[C@@H]1CN(S(=O)(=O)c2cccc3cnccc23)C[C@H]1c1ccccc1O (relative stereo) [Example 25, (4Z)-6-[(3α,4β)-1-[(Isoquinol-5-yl)sulfonyl]-4-(2-hydroxyphenyl)pyrrolidin-3-yl]hex-4-enoic acid]	0.06	–	5000
O=C(O)CC/C=C\C[C@@H]1CN(Cc2ccccc2)C[C@@H]1c1ccccc1O (relative stereo) [Example 15, (4Z) -6[(3α,4α) -1-Benzyl-4-(2-hydroxyphenyl)pyrrolidin-3-yl]hex-4-enoic acid]	0.177	–	–
O=C(O)CCC/C=C\[C@@H]1CN(Cc2ccccc2)C[C@@H]1c1ccccc1O (relative stereo) [Example 13, (5Z) -6-[(3α,4α) -1-Benzyl-4-(2-hydroxyphenyl)pyrrolidin-3-yl]hex-5-enoic acid]	2.28	–	–
O=C(O)CC/C=C\C[C@@H]1CN(S(=O)(=O)c2cccc3cnccc23)C[C@@H]1c1ccccc1O (relative stereo) [Example 24, (4Z)-6-[(3α,4α)-1-[(Isoquinol-5-yl)sulfonyl]-4-(2-hydroxyphenyl)pyrrolidin-3-yl]hex-4-enoic acid]	0.01	0.316	800
O=C(O)CC/C=C\C[C@@H]1CN(S(=O)(=O)c2ccc(Cl)cc2)C[C@H]1c1ccccc1O (relative stereo) [Example 18, (4Z)-6-[(3α, 4β)-1-(4-Chlorophenylsulfonyl)-4-(2-hydroxyphenyl)pyrrolidin-3-yl]hex-4-enoic acid]	0.03	7.94	5400
O=C(O)CC/C=C\C[C@@H]1CN(S(=O)(=O)c2cccc3ccccc23)C[C@@H]1c1ccccc1O (relative stereo) [Example 28]	0.01	1.58	500

More lines, main results first:

ED50 [2] [mg/kg]	Kb [3] [nM]	Compound	IC50 [1] [nM]
1.31	–	CC(C)C(=O)N1C[C@@H](C/C=C\CCC(=O)O)[C@H](c2ccccc2O)C1 (relative stereo) [Example 20, (4Z)-6-[(3α,4β)-1-Isobutyroyl-4-(2-hydroxyphenyl)pyrrolidin-3-yl]hex-4-enoic acid]	–
0.11	–	O=C(O)CC/C=C\C[C@@H]1CN(S(=O)(=O)c2ccc3ccccc3c2)C[C@@H]1c1ccccc1O (relative stereo) [Example 29]	–
1.03	1580	O=C(O)CC/C=C\C[C@H]1CN(Cc2cccnc2)C[C@H]1c1ccccc1O (relative stereo) [Example 21, (4Z)-6-[(3α, 4α)-4-(2-hydroxyphenyl)-1-[(3-pyridyl)methyl]pyrrolidin-3-yl]hex-4-enoic acid]	–
0.03	–	O=C(O)CC/C=C\C[C@@H]1CN(S(=O)(=O)c2cccc3cccnc23)C[C@@H]1c1ccccc1O (relative stereo) [Example 27, (4Z)-6-[(3α,4α)-1-[(Quinol-8-yl)sulfonyl]-4-(2-hydroxyphenyl)pyrrolidin-3-yl]hex-4-enoic acid]	–
0.1	200	CC(C)C(=O)N1C[C@@H](C/C=C\CCC(=O)O)[C@@H](c2ccccc2O)C1 (relative stereo) [Example 19]	–
0.43	20	CCCCCCC(=O)N1C[C@@H](C/C=C\CCC(=O)O)[C@@H](c2ccccc2O)C1 (relative stereo) [Example 23, (4Z)-6-[(3α,4α)-1-Heptanoyl-4-(2-hydroxyphenyl)pyrrolidin-3-yl]hex-4-enoic acid]	–
